Several values for one entry are separate records, joined by “and”; a condition that tells them apart may be missing. Identical values can stand only once. Entries after “also recorded” stand apart in the source; their conditions may differ.
Key:
[1] = system: RNA isoforms of miR-155 that contain the 5′GAU/3′C_A binding site; test: RT-qPCR of RNA isoforms of miR-155 (same binding site) in MDA-MB-231 cells; type: cell-based, human; details: 48 h
Description: Next, the selectivity of 3 to inhibit miR-155 out of 373 expressed miRNAs in MDA-MB-231 cell was assessed. […] A comparison of their structures to the aforementioned list of miRNAs with potential RIBOTAC sites identified that all except pre-miR-101-1 and pre-let-7g have a RIBOTAC targetable motif.
(§1) RT-qPCR analysis for Mature, Primary and Precursor miRNAs and mRNA levels. After compound treatment for the indicated time (MDA-MB-231 48 h and HUVECs 24 h), total RNA was extracted using the Zymo Quick-RNA mini prep kit according to the manufacturers protocol. Reverse Transcription (RT) for microRNAs and pri- and pre-miR-155 were done on 200 ng of RNA using the miScript II RT kit (Qiagen) according to the manufacturer's protocol. The mRNAs were done using QScript (Quanta Bio) on 200 ng of total RNA according to the manufacturer's protocol. RT-qPCR was done as mentioned above. The obtained data was analyzed by using the ΔΔCt method as described previously. For the washout experiment, MDA-MB-231 cells were treated with 3 for 48 h. Then the media was changed with fresh growth medium without compound and the cells incubated for 12, 24 and 36 h with RNA harvested and pre-miR-155 levels analyzed as described above.

pre-miR-155 [2] = test: RT-qPCR of pre-miR-155 levels in HUVECs; type: cell-based, human
Description: (§2) Tissue Culture. MDA-MB-231 cells were obtained from ATCC (HTB-26) and cultured in RPMI medium with […] & 25 mM HEPES (Corning) supplemented with 10% FBS (sigma). MCF-10a cells were obtained from ATCC(CRL-10317) and cultured in DMEM/F12 50/50 with glutamine and 15 mM HEPES(Corning) containing 20% FBS(Sigma), 1×Antibiotic-Antimycotic(Corning), 20 ng/mL of human epidermal growth factor(Pepro Tech Inc.), 100 μg/mL of insulin and […] of hydrocortisone (Pfizer &Bauer). HUVECs were cultured in EGM (Lonza) made using the EGM-2 bullet kit (Lonza) per the manufacturers protocol.
as §1

MCF-10a cells = test: Migration assay of transfected MCF-10a cells; type: cell-based; details: mock transfected MCF-10a cells
Description: Lastly, the dependence of migration on miR-155 and the activity of 3 on the presence of the 5′GAU/3′C_A bulge was assessed. MCF-10a cells, a model of healthy breast epithelium, were transfected with wild type pre-miR-155 and mutant pre-miR-155, where the 5′GAU/3′C_A bulge is mutated to an AU base pair. […] Treatment with 3 reduced migration of MCF-10a cells transfected with WT pre-miR-155 by 60%, in contrast to mutant miR-155 expressing cells in which the compound's binding site has been ablated, the migration of which was unaffected by 3 treatment.
Migration Assay: The Migration assay was performed the same as previous publication^15. Briefly, MDA-MB-231 cells were serum starved for 12 h in RPMI medium without FBS. Then, samples of 50,000 cells treated with vehicle or 155-Ribotac in serum starved medium were seeded into Hanging cell culture Inserts with 8.0 µm pores for 24 well plate with complete growth medium in the bottom well. After 20 h, the medium was aspirated and the inserts and the bottom wells were washed with DPBS twice. Then to the bottom well were added 400 µL of 4% paraformaldehyde. After fixing for 20 min. The inserts and wells were washed with DPBS twice and then treated with 400 µL of 0.1% crystal violet solution. After 20 min, the wells and inserts were washed with water twice and PBS once. Cotton swabs were used to remove the cells inside the inserts. […]

MDA-MB-231 cells = test: Migration assay of MDA-MB-231 cells; type: cell-based; details: Homo sapiens, compound 3 at 1×10^−7 M, read-out: inhibition of cellular migration
Description: Migration Assay: The Migration assay was performed the same as previous publication^15. Briefly, MDA-MB-231 cells were serum starved for 12 h in RPMI medium without FBS. Then, samples of 50,000 cells treated with vehicle or 155-Ribotac in serum starved medium were seeded into Hanging cell culture Inserts with 8.0 µm pores for 24 well plate with complete growth medium in the bottom well. After 20 h, the medium was aspirated and the inserts and the bottom wells were washed with DPBS twice. Then to the bottom well were added 400 µL of 4% paraformaldehyde. After fixing for 20 min. The inserts and wells were washed with DPBS twice and then treated with 400 µL of 0.1% crystal violet solution. After 20 min, the wells and inserts were washed with water twice and PBS once. Cotton swabs were used to remove the cells inside the inserts. Migration inserts were completely air-dried and imaged by using a Leica DMI3000 B upright fluorescent microscope.

pri-miR-155 = test: RT-qPCR of pri-miR-155 levels in MDA-MB-231 cells; type: cell-based, human
Description: as §2
RT-qPCR analysis for Mature, Primary and Precursor miRNAs and mRNA levels. After compound treatment for the indicated time (MDA-MB-231 48 h and HUVECs 24 h), total RNA was extracted using the Zymo Quick-RNA mini prep kit according to the manufacturers protocol. […] The obtained data was analyzed by using the ΔΔCt method as described previously. […] Then the media was changed with fresh growth medium without compound and the cells incubated for 12, 24 and 36 h with RNA harvested and pre-miR-155 levels analyzed as described above.
(§3) RT-qPCR analysis for Mature, Primary and Precursor miRNAs and mRNA levels part. Relative RNA expression was determined by using ΔΔCt method with 18S rRNA as an internal control. Normalized fold change was calculated with the equation as below: […]

HUVECs = test: Angiogenesis: tubule network formation of HUVECs on Matrigel; type: cell-based, human
Description: Lastly, compound 3's (Formula I) effect on VHL protein and angiogenesis in HUVECs was studied. […] Since upregulation of VHL should attenuate the angiogenic capacity of HUVECs, their ability to differentiate into tubule networks on Matrigel as previously described was measured.^24 Treatment with compound 3, caused a decrease of 29% (100 vs. 140 branch points) in tubule branching for differentiated HUVECs. Although small, this decrease does correspond with suppression of miR-155 and de-repression of VHL, which is in line with the initial study by Kong et al. who observed a 42% reduction in branching points (FIG. 21I).^38 Taken together compound 3 degrades miR-155 in HUVECs with low nanomolar activity and is able to attenuate their angiogenic capacity.

SOCS1 = test: Western blot of SOCS1 in MDA-MB-231 cells; type: cell-based, human
Description: Western-Blotting. MDA-MB-231 cells were plated in 6 well plates at 150,000 cells/well. And at 50% confluency, cells were treated with Vehicle or 155-ribotac for 48 h. Then the medium was removed and washed with 1× DPBS. The cells were trypsinized and pelleted. The pellets were washed twice with 1× DPBS and then lysed in 50 L of M-PER (Thermo Fisher) buffer with 1× protease inhibitor cocktail (Roche) on ice for 20 min. The lysate was centrifuged at 4° C. for 15 min and the supernatants were collected. Protein concentration were determined using a Pierce Mico BCA Protein Assay kit (Fisher Scientific) according to the manufacturer's protocol. Approximately 20 g of total protein for each sample was resolved on a 10% SDS-polyacrylamide gel and the protein were then transferred to a PVDF membrane. […] After washing with 1× TBST for 15 min for 3 times, SOCS1 protein expression was detected by using SuperSignal West Pico Chemiluminescent Substrate (Pierce Biotechnology).
The membrane was then stripped by Stripping Buffer (200 mM glycine with 0.1% SDS, pH 2.2) for 90 min at RT and then the membrane was washed with 1× TBST for 10 min for 3 times. […] The membrane was then washed with 1× TBST for 10 min for 3 times and j-actin expression level was detected. ImageJ software was used to quantify the protein bands.

Von-Hippel Lindau (VHL) = test: Western blot of VHL in HUVECs; type: cell-based, human
pre-miR-155 [3] = test: RT-qPCR of pre-miR-155 levels in MDA-MB-231 cells; type: cell-based, human
Description: as §2, §1, §3

miR-155 [4] = test: RT-qPCR of miR-155 levels in HUVECs; type: cell-based, human
Description: as §2, §1

RNase L / pre-miR-155 = target: T1, RNase L / pre-miR-155 (Homo sapiens, UniProt Q05823); test: Immunoprecipitation of RNase L from MDA-MB-231 cells, RT-qPCR of pre-miR-155; type: cell-based; details: 100 nM, 48 h, relative to untreated
T1 construct: RNase L was immunoprecipitated from MDA-MB-231 cells; endogenous in cells; host or cells: MDA-MB-231
T1 sequence (Q05823 1-741): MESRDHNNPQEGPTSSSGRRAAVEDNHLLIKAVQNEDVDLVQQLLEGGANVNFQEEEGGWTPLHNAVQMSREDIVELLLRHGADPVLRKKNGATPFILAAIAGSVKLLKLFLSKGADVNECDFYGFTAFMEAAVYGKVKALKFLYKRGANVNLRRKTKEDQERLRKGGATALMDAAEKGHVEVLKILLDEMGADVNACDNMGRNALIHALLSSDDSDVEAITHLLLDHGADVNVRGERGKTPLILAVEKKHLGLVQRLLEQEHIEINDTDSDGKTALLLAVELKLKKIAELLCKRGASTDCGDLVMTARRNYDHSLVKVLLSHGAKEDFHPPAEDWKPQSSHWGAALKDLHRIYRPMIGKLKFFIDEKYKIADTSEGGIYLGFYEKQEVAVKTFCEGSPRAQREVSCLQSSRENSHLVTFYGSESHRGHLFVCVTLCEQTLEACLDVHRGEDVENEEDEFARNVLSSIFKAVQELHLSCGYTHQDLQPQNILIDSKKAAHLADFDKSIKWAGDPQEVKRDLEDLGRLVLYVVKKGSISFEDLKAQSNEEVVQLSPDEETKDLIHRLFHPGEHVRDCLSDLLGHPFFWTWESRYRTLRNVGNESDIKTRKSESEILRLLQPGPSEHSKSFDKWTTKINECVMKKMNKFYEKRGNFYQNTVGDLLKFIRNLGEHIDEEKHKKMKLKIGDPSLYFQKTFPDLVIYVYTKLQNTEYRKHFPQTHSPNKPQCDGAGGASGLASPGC
Description: Immunoprecipitation of RNase L. RNase L immunoprecipitation is performed according to published procedures.^16 Briefly, at […], MDA-MB-231 cells were treated with vehicle, 100 nM of 3 or 5 for 48 h. Cells were then washed with DPBS, and detached by scraper. The collected cells were lysed in 100 L of M-PER buffer(78503, Thermo Fisher) containing 1× Protease Inhibitor Cocktail III for Mammalian Cells (Research Products International Corp.) and 80 U of RNaseOUT Recombinant Ribonuclease Inhibitor (Invitrogen) per the manufacture's protocol. The samples were centrifuged at 13,000×g at 4° C. Protein concentration was determined by using a Pierce Mico BCA Protein Assay kit (Fisher Scientific). Approximately 200 g of the total protein per sample was incubated at 4° C. overnight with Dynabeads Protein A (Life Technologies) bound to either RNase L mouse primary antibody (Santa Cruz Biotechnology: sc-74405) or j-actin mouse primary antibody (Cell signaling: 8H10D10). Beads were then washed with 1× DPBST (1× DPBS supplemented with 0.02% Tween-20) for 3 times, after which RNA was extracted by using a miRNeasy Mini Kit (Qiagen) per the manufacturer's instructions. RT-qPCR was performed the same as mentioned above.

miR-155 [5] = test: RT-qPCR of mature miR-155 levels in MDA-MB-231 cells; type: cell-based, human; details: 48 h
Description: as §2, §1, §3

| Structure (SMILES) | effect on RNA isoforms of miR-155 [1] | lowest concentration showing cleavage of pre-miR-155 (pre-miR-155 [2]) [nM] | inhibition at 0.001 µM (pre-miR-155 [2]; Homo sapiens, HUVEC, 1×10^−9 M) [%] | effect on migration (MCF-10a cells) | inhibition at 0.1 µM (MDA-MB-231 cells) [%] | degradation of the primary transcript (pri-miR-155) (pri-miR-155) [%] | inhibition of angiogenic capacity / decrease in tubule branching (HUVECs; differentiated HUVECs on Matrigel) | branch points (HUVECs; differentiated HUVECs, treated (vs. 140 untreated)) | de-repression of SOCS1 (SOCS1) [%] | upregulation of SOCS1 (SOCS1) [fold] | de-repression of VHL (Von-Hippel Lindau (VHL); 10 nM) [%] | de-repression of VHL (Von-Hippel Lindau (VHL); 1×10^−7 M) [fold] | degradation of pre-miR-155 (pre-miR-155 [3]; MDA-MB-231 cells, 1×10^−7 M, 48 h) [%] | degradation of pre-miR-155 (pre-miR-155 [3]; MDA-MD-231 and/or HUVEC cells, 0.1 micromolar, summary) [%] | lowest concentration showing reduction of miR-155 levels (miR-155 [4]) [nM] | inhibition at 0.001 µM (miR-155 [4]; Homo sapiens, HUVEC, 1×10^−9 M) [%] | effect on pre-miR-155 levels (pre-miR-155 [2]) | enrichment of pre-miR-155 in RNase L pulldown fractions (RNase L / pre-miR-155) | effect on miR-155 levels / miR-155 biogenesis (miR-155 [5]) | effect on miR-155 levels (miR-155 [4]) |
| --- | --- | --- | --- | --- | --- | --- | --- | --- | --- | --- | --- | --- | --- | --- | --- | --- | --- | --- | --- | --- |
| CCOC(=O)C1=C(Nc2ccccc2)S/C(=C\c2ccc(OCCOCCOCCOCCNC(=O)CCc3c(C)n(-c4c(C(C)C)cccc4C(C)C)c[n+]3-c3c(C(C)C)cccc3C(C)C)c(O)c2)C1=O [Compound 3] | no effect | ≤ 1 | 50 | inactive | 50 | 43 | 20% and 29% | 100 | 50 | 1.6 | 50 | 1.5 | 60 | ≥ 60 | ≤ 1 | 50 |  |  |  |  |
| CCOC(=O)C1=C(Nc2ccccc2)S/C(=C\c2ccc(O)c(OCCOCCOCCOCCNC(=O)CCc3c(C)n(-c4c(C(C)C)cccc4C(C)C)c[n+]3-c3c(C(C)C)cccc3C(C)C)c2)C1=O [Compound 5] |  |  |  |  |  |  |  |  |  |  |  |  |  |  |  |  | no effect | no enrichment | no effect; also recorded: does not inhibit | no effect |
